The values below are quoted from earlier work in patent US20080269177A1, “PESTICIDAL COMPOSITIONS” (ECOSMART TECHNOLOGIES, INC., priority 2007, published 2008).

For series [1] the following is noted: even treatments as low as 1.2%.
For series [2] the following is noted: even at the lowest doses, 30 mg/kg/day.

Consider `CCCCOCCOCCOCc1cc2c(cc1CCC)OCO2` [PBO, piperonyl butoxide], for which the “tumour finding in animal studies” value in series [1] is “hepatocellular carcinomas”. In addition, the “liver weights in chronic toxicity studies” value in series [2] is listed as “increased liver weights”.
